Values after ≈ are worked out from the molar mass of the structure shown. Read-outs that look alike come from different tables or passages of the source.
Experiments:
[1] = target: T1, CB1 receptor (Homo sapiens, UniProt P21554); experiment: Competitive radioligand binding assay, CB1; conditions: 10 μM; [3H]-CP55,940
T1 construct: expressed in transfected cells; host or cells: HEK293 (ATCC), stably transfected; membranes
Experimental: (§1) HEK293 cells stably transfected with δ, κ and μ opioid subtypes were a generous gift from Roth Laboratories (University of North Carolina at Chapel Hill, N.C., USA). CB and opioid cells were maintained as previously described.
(§2) Membranes were purified by first washing the cells with cold PBS and scraping the cells into cold 50 mM Tris-HCl, pH 7.4 buffer, which was centrifuged at 5200× g for 10 min at 4 °C; next, the supernatant was discarded, and the pellet was washed with more Tris-HCl buffer, homogenized via a Sonic Dismembrator (Fisher Scientific, Pittsburgh, PA, USA) and then centrifuged at 24,000× g for 40 min at 4 °C. Finally, the pellet was re-suspended in cold 50 mM Tris-HCl buffer, aliquoted into 2 mL vials and stored at −80 °C. The total membrane protein concentration was measured using a Pierce BCA Protein Assay Kit (Thermo Scientific, Rockford, IL, USA) as per the manufacturer’s protocol.
(§3) Cannabinoid and opioid competitive radioligand binding assays were performed as previously described. Saturation experiments were performed for all the receptors to determine the receptor concentration and radioligand dissociation constant (Kd) for the membrane. Percent displacements were evaluated for all the cannabinoid and opioid subtypes with a triplicate of a fixed concentration (10 µg/mL for extracts and fractions and 10 μM for purified compounds). […] Control/test compounds were dissolved in DMSO at 10 μg/mL for extracts and fractions and 10 μM for purified compounds. […] The percent displacement was calculated to represent the ability of the samples to displace the radioligand binding for a given cannabinoid or opioid receptor subtype.
(§4) The percent displacement was calculated as follows: 100−binding of compound−nonspecific binding/specific binding×100
(§5) The competitive binding assays were performed using 12 serial dilutions of each compound ranging from 0.002 to 300 μM (control compounds were serially diluted from 10 μM to 0.06 nM). The cannabinoid assays were incubated for 90 min at 37 °C with gentle agitation. The opioid assays were incubated for 60 min at room temperature. Bound radioligands were collected on GF/C (cannabinoid) or GF/B plates (opioid) and washed 10 times with ice-cold 50 mM Tris-HCl (pH 7.4)/0.1% BSA (cannabinoid) or ice-cold 50 mM Tris-HCl (pH 7.4) (opioid). Radiodetection was measured with 50 µL (cannabinoid) or 25 µL (opioid) of MicroScint^TM-20 on a TopCount NXT HTS Microplate Scintillation Counter (PerkinElmer, Waltham, MA, USA). The IC50 and Ki values were calculated via a non-linear curve fit model using GraphPad Prism 5.0 software (GraphPad Software, Inc., San Diego, CA, USA). Each compound was tested in triplicate unless stated otherwise.

[2] = target: T2, CB2 receptor (Homo sapiens, UniProt P34972); experiment: Competitive radioligand binding assay, CB2; conditions: for Percent displacement, CB2: 10 μM, [3H]-CP55,940
T2 construct: expressed in transfected cells; host or cells: HEK293 (ATCC), stably transfected; membranes
T2 sequence (P34972 whole entry): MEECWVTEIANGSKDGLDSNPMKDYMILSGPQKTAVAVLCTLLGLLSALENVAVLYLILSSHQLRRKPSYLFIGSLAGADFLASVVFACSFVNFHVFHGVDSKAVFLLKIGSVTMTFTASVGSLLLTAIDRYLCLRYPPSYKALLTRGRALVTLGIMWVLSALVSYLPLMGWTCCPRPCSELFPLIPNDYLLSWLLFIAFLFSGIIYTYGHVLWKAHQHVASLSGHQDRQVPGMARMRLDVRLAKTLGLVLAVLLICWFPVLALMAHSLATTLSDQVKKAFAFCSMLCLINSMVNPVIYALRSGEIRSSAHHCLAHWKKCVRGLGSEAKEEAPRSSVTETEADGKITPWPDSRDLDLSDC
Experimental: as §1, §2, §3, §4, §5

[3] = Cytotoxicity, Neutral Red, SK-MEL; type: cell-based; conditions: human, SK-MEL malignant melanoma cells, Na = not active up to 50 µg/mL
Experimental: (§6) In vitro cytotoxic activity was determined against five human cancer cell lines—malignant melanoma (SK-MEL), epidermal carcinoma oral (KB), ductal carcinoma breast (BT-549), ovary carcinoma (SKOV-3) and cervical (HeLa) cancer cells—and two non-cancerous kidney cell lines (LLC-PK1 and Vero). All cell lines were obtained from the American Type Culture Collection (ATCC, Rockville, MD, USA). Each assay was performed in 96-well tissue culture-treated microplates. The cells were seeded at a density of 25,000 cells/well and incubated for 24 h. Samples at different concentrations were added, and the cells were incubated again for 48 h. At the end of the incubation, the cell viability was determined using Neutral Red dye according to a modification of the procedure used by Borenfreund et al.. IC50 values were determined from dose–response curves of the percent growth inhibition against test concentrations. Doxorubicin was used as a positive control, while DMSO was used as the negative (vehicle) control.

[4] = Cytotoxicity, Neutral Red, KB; type: cell-based; conditions: human, KB epidermal carcinoma (oral) cells, Na = not active up to 50 µg/mL
Experimental: as §6

[5] = Cytotoxicity, Neutral Red, BT-549; type: cell-based; conditions: human, BT-549 breast ductal carcinoma cells, Na = not active up to 50 µg/mL
Experimental: as §6

[6] = system: Stat3; experiment: Luciferase reporter assay, Stat3, HeLa; type: cell-based, human
Experimental: (§7) Hela cells (or T98G cells) from ATCC were plated in white opaque 384-well plates at a density of 4300 cells/well in 30 µL of growth medium (DMEM with 10% FBS and 1% Pen/Strep). The next day, the medium was aspirated and replaced with DMEM containing 1% FBS. The cells were transfected with respective plasmids using X-tremeGENE HP DNA transfection reagent (Roche). After 24 h of transfection, the test agents were added to the transfected cells, followed 30 min later by an inducing agent: interleukin 6 (IL-6) for Stat3, TGF-β for Smad, m-wnt3a for Wnt and PMA for AP-1, NF-κB, E2F, Myc, ETS, Notch and Hedgehog. No inducer was added for FoXO and pTK. After 4 h or 6 h of induction, the cells were lysed via the addition of the One-Glo luciferase assay system (Promega; Madison, WI). The light output was detected in a GloMax®-Multi+ Detection System with Instinct® Software (Promega E 8051). This luciferase assay determines if the test agent is able to inhibit the activation of cancer-related signaling pathways. In the case of FoxO, the enhanced luciferase activity via the test agent was assessed.

[7] = system: Smad2/3; experiment: Luciferase reporter assay, Smad2/3, HeLa; type: cell-based, human
Experimental: as §7

[8] = system: AP-1; experiment: Luciferase reporter assay, AP-1, HeLa; type: cell-based, human; conditions: Homo sapiens; for IC50: read-out: IC50, Ap-1 (PMA)
Experimental: as §7

[9] = system: FoxO; experiment: Luciferase reporter assay, FoxO, HeLa; type: cell-based; conditions: Homo sapiens, no inducer; for IC50: HeLa cells, dash: no activity detected, read-out: IC50, FoxO (None)
Experimental: as §7

[10] = system: Hedgehog; experiment: Luciferase reporter assay, Hedgehog, HeLa; type: cell-based, human
Experimental: as §7

[11] = Homo sapiens, HeLa cells, inducer IL6, dash: not inhibited by more than 40% at 50 µmol/L
[12] = Homo sapiens, HeLa cells, inducer TGF-beta, dash: not inhibited by more than 40% at 50 µmol/L
[13] = AP1, read-out: Additive effect (in % inhibition): percentage of luciferase induction, AP-1 (PMA)
[14] = Homo sapiens, HeLa cells, inducer PMA, dash: not inhibited by more than 40% at 50 µmol/L

T1 sequence (P21554 whole entry): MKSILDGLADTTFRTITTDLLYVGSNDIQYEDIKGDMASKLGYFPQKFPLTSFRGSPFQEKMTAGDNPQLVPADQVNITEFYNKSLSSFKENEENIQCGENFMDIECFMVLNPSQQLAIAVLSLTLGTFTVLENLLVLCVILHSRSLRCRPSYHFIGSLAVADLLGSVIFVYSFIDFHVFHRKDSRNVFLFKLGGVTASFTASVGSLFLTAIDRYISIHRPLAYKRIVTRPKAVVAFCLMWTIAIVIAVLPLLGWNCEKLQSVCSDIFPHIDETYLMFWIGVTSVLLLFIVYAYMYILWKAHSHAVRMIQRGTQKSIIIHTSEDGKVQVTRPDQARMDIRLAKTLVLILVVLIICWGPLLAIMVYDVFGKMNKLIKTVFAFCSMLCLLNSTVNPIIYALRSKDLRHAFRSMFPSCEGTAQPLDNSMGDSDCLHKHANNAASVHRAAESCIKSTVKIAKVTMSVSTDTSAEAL

Compound	Percent displacement, CB1 [1] [%]	Percent displacement, CB2 [2] [%]	IC50 at 48 h [3] [µg/mL]	IC50 at 48 h [4] [µg/mL]	IC50 at 48 h [5] [µg/mL]	IC50 [6, 11] [µM]	IC50 [7, 12] [µM]	IC50 [8] [µM]	IC50 [9] [µM]	IC50 [10, 14] [µM]	also measured
C=C(C)[C@H]1CC[C@H](C)C[C@@H]1c1c(O)cc(/C=C/c2ccccc2O)cc1O [compound 6, machaeridiol B]	45.2	56.8	32 (≈ 87.8 µM)	38 (≈ 104 µM)	36 (≈ 98.8 µM)	4.7	1.2	5.9	> 50	> 50	Ki ([2]; * tested up to solubility limit, conc. at 33.3 μM and above precipitated, read-out: CB2 Ki ± SEM): > 2.18 µM; inhibition at 2 µM ([6]; Homo sapiens, HeLa, 6 alone at 2 µM, compared to pTK as control, read-out: Additive effect (in % inhibition): percentage of luciferase induction, Stat3 (IL-6)): 82%; inhibition at 2 µM ([7]; Homo sapiens, HeLa, 6 alone at 2 µM, compared to pTK as control, read-out: Additive effect (in % inhibition): percentage of luciferase induction, Smad2/3 (TGF-β)): 109%; inhibition at 2 µM [8, 13]: 70%; inhibition at 2 µM ([9]; HeLa, 6 alone at 2 µM, read-out: Additive effect (in % inhibition): percentage of luciferase induction, FoxO (None)): 105%; IC50, Hedgehog (PMA) ([10]; HeLa cells, inducer PMA, dash: not inhibited by more than 40% at 50 µmol/L): inactive; inhibition at 2 µM ([10]; Homo sapiens, HeLa, 6 alone at 2 µM, compared to pTK as control, read-out: Additive effect (in % inhibition): percentage of luciferase induction, Hedgehog (PMA)): 92%
C[C@H]1CC[C@H]2[C@H](C1)c1c(O)cc(/C=C/c3ccccc3O)cc1OC2(C)C [compound 3, machaeriol C]	43.6	55.5	25 (≈ 68.6 µM)	> 50	> 50	38	37	12	> 50	10	Ki [2]: > 7.76 µM; IC50, Stat3 (IL6) ([6]; HeLa cells, inducer IL6, dash: not inhibited by more than 40% at 50 µmol/L): lacked activity; inhibition at 10 µM ([6]; Homo sapiens, HeLa, 3 alone at 10 µM, compared to pTK as control, read-out: Additive effect (in % inhibition): percentage of luciferase induction, Stat3 (IL-6)): 92%; IC50, Smad2/3 (TGF-beta) ([7]; HeLa cells, inducer TGF-beta, dash: not inhibited by more than 40% at 50 µmol/L): lacked activity; inhibition at 10 µM ([7]; Homo sapiens, HeLa, 3 alone at 10 µM, compared to pTK as control, read-out: Additive effect (in % inhibition): percentage of luciferase induction, Smad2/3 (TGF-β)): 93%; inhibition at 10 µM [8, 13]: 61%; inhibition at 10 µM ([9]; HeLa, 3 alone at 10 µM, read-out: Additive effect (in % inhibition): percentage of luciferase induction, FoxO (None)): 120%; inhibition at 10 µM ([10]; Homo sapiens, HeLa, 3 alone at 10 µM, compared to pTK as control, read-out: Additive effect (in % inhibition): percentage of luciferase induction, Hedgehog (PMA)): 66%

Reference: paper PMC10361207, “Cannabinoid and Opioid Receptor Affinity and Modulation of Cancer-Related Signaling Pathways of Machaeriols and Machaeridiols from Machaerium Pers” (Molecules, 2023)
